Laboratory results taken from ChEMBL document CHEMBL1201862, “PubChem BioAssay data set” (2004).
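Cultured in 96-well plates, cells were exposed to test compound for 48 hours across five concentrations. Abbreviation: GI50, concentration required for 50% inhibition of growth.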 Activity calls are given as the source filed them. No stated cut-off is given here; in the data, active = GI50 up to about 1.1 µM and inactive = higher.

Key:
Experiment in all cases: NCI anticancer screen, dose series, 48 h
SF-268 = test system: SF-268
NCI-H522 = test system: NCI-H522
OVCAR-8 = test system: OVCAR-8
OVCAR-3 = test system: OVCAR-3
LOX IMVI = test system: LOX IMVI
TK-10 = test system: TK-10
CCRF-CEM = test system: CCRF-CEM
HCC 2998 = test system: HCC 2998
UACC-62 = test system: UACC-62
CAKI-1 = test system: CAKI-1
Malme-3M = test system: Malme-3M
HOP-62 = test system: HOP-62
HCT-116 = test system: HCT-116
NCI-H23 = test system: NCI-H23
EKVX = test system: EKVX
SK-MEL-2 = test system: SK-MEL-2
IGROV-1 = test system: IGROV-1

Measured: GI50

N#C/C(=C\c1ccc[nH]1)C(=O)c1ccccc1
inactive: SF-268 > 100 µM | NCI-H522 > 100 µM | OVCAR-8 > 100 µM | OVCAR-3 > 100 µM | LOX IMVI > 100 µM | TK-10 > 100 µM | CCRF-CEM > 100 µM | HCC 2998 > 100 µM | UACC-62 > 100 µM | CAKI-1 > 100 µM | Malme-3M > 100 µM | HOP-62 > 100 µM | HCT-116 > 100 µM | NCI-H23 > 100 µM | EKVX > 100 µM | SK-MEL-2 > 100 µM

COc1cc2cc3c4c(cc(OC)c(OC)c4c2cc1OC)CCN3C(=O)CCCC(=O)O
inactive: SF-268 > 100 µM | NCI-H522 > 100 µM | OVCAR-3 > 100 µM | LOX IMVI > 100 µM | IGROV-1 > 100 µM | TK-10 > 100 µM | CCRF-CEM > 100 µM | HCC 2998 > 100 µM | UACC-62 > 100 µM | CAKI-1 > 100 µM | Malme-3M > 100 µM | HOP-62 > 100 µM | HCT-116 > 100 µM | NCI-H23 > 100 µM | EKVX > 100 µM | SK-MEL-2 > 100 µM

O=c1ccn(/C=C/C(O)C(O)CO)c(=O)[nH]1 (stereo not drawn)
inactive: SF-268 > 100 µM | NCI-H522 > 100 µM | OVCAR-8 > 100 µM | OVCAR-3 > 100 µM | LOX IMVI > 100 µM | IGROV-1 > 100 µM | TK-10 > 100 µM | CCRF-CEM > 100 µM | HCC 2998 > 100 µM | UACC-62 > 100 µM | CAKI-1 > 100 µM | Malme-3M > 100 µM | HOP-62 > 100 µM | HCT-116 > 100 µM | NCI-H23 > 100 µM | EKVX > 100 µM | SK-MEL-2 > 100 µM

CC(C)(C)OC(=O)N[C@H]1CC(O)c2ccccc2N(CC(=O)O)C1=O (stereo partly drawn)
inactive: SF-268 > 100 µM | NCI-H522 > 100 µM | OVCAR-8 > 100 µM | OVCAR-3 > 100 µM | LOX IMVI > 100 µM | IGROV-1 > 100 µM | TK-10 > 100 µM | CCRF-CEM > 100 µM | HCC 2998 > 100 µM | UACC-62 > 100 µM | CAKI-1 > 100 µM | Malme-3M > 100 µM | HOP-62 > 100 µM | HCT-116 > 100 µM | NCI-H23 > 100 µM | EKVX > 100 µM | SK-MEL-2 > 100 µM

O=C(N/C(=C\c1ccc([N+](=O)[O-])cc1)c1nc2ccccc2s1)c1ccccc1
inactive: SF-268 20.1 µM | NCI-H522 > 10 µM | OVCAR-8 24.6 µM | OVCAR-3 29.3 µM | LOX IMVI 20 µM | IGROV-1 23 µM | TK-10 22.6 µM | CCRF-CEM 19.1 µM | HCC 2998 57.4 µM | UACC-62 20.4 µM | CAKI-1 31 µM | Malme-3M > 100 µM | HOP-62 35.6 µM | HCT-116 27 µM | NCI-H23 19.7 µM | SK-MEL-2 23.7 µM

O=C(CC1C(=O)c2ccccc2C1=C1C(=O)c2ccccc2C1=O)c1ccccc1 (stereo not drawn)
inactive: SF-268 > 100 µM | NCI-H522 19.9 µM | OVCAR-8 > 100 µM | LOX IMVI > 100 µM | IGROV-1 > 100 µM | TK-10 > 100 µM | CCRF-CEM 32 µM | HCC 2998 > 100 µM | UACC-62 > 100 µM | CAKI-1 > 100 µM | Malme-3M > 100 µM | HOP-62 > 100 µM | NCI-H23 > 100 µM | EKVX > 100 µM | SK-MEL-2 > 100 µM

O=C1CCC2(c3ccc(F)cc3)Nc3ccccc3N12 (stereo not drawn)
inactive: SF-268 > 100 µM | NCI-H522 > 100 µM | OVCAR-8 > 100 µM | OVCAR-3 > 100 µM | LOX IMVI > 100 µM | IGROV-1 > 100 µM | TK-10 > 100 µM | CCRF-CEM > 100 µM | HCC 2998 > 100 µM | UACC-62 > 100 µM | CAKI-1 > 100 µM | Malme-3M > 100 µM | HOP-62 > 100 µM | NCI-H23 > 100 µM | EKVX > 100 µM | SK-MEL-2 > 100 µM
